Reference: patent publication US7414040B2, “Thrombopoietin mimetics” (SmithKline Beecham Corporation, priority 2002, dated 2008)

Target: T1, human Tpo-R (Homo sapiens, UniProt P40238)
T1 construct: expressed in transfected cells; host or cells: murine BaF3 cell line
T1 sequence (P40238 26-635): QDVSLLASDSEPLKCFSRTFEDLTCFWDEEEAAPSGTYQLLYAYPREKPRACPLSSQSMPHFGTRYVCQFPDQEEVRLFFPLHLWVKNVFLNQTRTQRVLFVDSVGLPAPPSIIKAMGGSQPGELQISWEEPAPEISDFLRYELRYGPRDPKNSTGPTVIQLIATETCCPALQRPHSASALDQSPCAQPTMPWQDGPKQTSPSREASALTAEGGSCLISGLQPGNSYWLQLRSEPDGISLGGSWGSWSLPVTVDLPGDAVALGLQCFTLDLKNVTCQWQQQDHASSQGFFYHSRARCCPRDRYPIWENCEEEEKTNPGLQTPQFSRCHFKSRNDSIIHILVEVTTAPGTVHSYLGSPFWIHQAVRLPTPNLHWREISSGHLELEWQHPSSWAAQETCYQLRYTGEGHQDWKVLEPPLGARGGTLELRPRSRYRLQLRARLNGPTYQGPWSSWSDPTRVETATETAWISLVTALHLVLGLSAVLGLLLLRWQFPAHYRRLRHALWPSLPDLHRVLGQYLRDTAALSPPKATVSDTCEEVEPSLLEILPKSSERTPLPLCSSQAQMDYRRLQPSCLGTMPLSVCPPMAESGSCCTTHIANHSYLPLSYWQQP
Assay: BaF3/hTPO-R in vitro proliferation assay
Format: cell-based
Settings: murine BaF3 cell line transfected with human Tpo-R
Method: Compounds of the present invention were tested for potency as mimetics of TPO in an in vitro proliferation assay using the murine BaF3 cell line transfected with human Tpo-R. Survival and growth is dependent on the presence of TPO.

EC50: 800 nM | activity, % TPO (relative to TPO): 160 % TPO
SMILES: CC1=NN(C2CCCCC2)C(=O)C1=NNc1cccc(-c2cccc(C(=O)O)c2)c1O [Example 1, 3′-[N′-(1-cyclohexyl-3-methyl-5-oxo-1,5-dihydro-pyrazol-4-ylidene)-hydrazino]-2′-hydroxy-biphenyl-3-carboxylic acid]
